Assay results: patent US7145037B2, “Adamantane derivatives with neuroprotective, antidepressant and anti-ischaemic activities, and process for preparing them” (Rotta Research Laboraturium S.p.A., priority 2003, dated 2006)
Where a name gives a salt, the structure may show the parent alone. Marks after values point to notes of the source that are not given here.

How the values were obtained:
rat hippocampus slices = test: Basal release of [3H]noradrenalin from rat hippocampus slices in perfusion; format: cell-based
Protocol: (§1) The animals were sacrificed and the brains rapidly removed from the brain case and immediately transferred at 4° C. into artificial cerebrospinal fluid (aCSF) aerated with a gas mixture composed of 95% oxygen and 5% carbon dioxide. The brains were then sectioned at a temperature of 4° C. and the encephalic areas of interest (hippocampus and corpora striata) removed and immersed in the solution mentioned above.
(§2) Cerebral slices 400 μm thick were then prepared using a McIllwain “chopper”. The hippocampus slices were incubated with 0.08 μM of [^3H] noradrenalin and the striatum slices with 0.01 μM of [^3H] dopamine and/or with 0.09 μM of [^3H] choline at a temperature of 37° C. for 20 minutes. The slices labelled with [^3H] noradrenalin were incubated in the presence of 0.1 μM 6-nitroquipazine and 0.1 μM GBR 12909, which are selective inhibitors of the uptake of serotonin and dopamine, respectively, in order to prevent possible false labelling of serotoninergic and dopaminergic synaptic endings.
(§3) For the same reasons, the slices labelled with [^3H] dopamine were incubated in the presence of 0.1 μM 6-nitroquipazine and 0.1 μM nisoxetine, which are selective inhibitors of serotonin and noradrenalin uptake. […]
(§4) At the end of the experiment, the collected samples and the perfused slices (dissolved in toluene) were subjected to counting of the radioactivity present in each fraction and/or slice using a scintillator for liquid samples. The fractional release of tritiated neurotransmitters was calculated as the amount of radioactivity present in each fraction divided by the total radioactivity present in the slice at the moment at which it was collected. The ratios between the fractional release at a given moment of the perfusion and the fractional release in the first collected fraction were thus calculated for each slice. The effects of the compounds were expressed as a percentage of increase of the release of the neurotransmitters studied relative to the control slices perfused in the absence of drugs (Table 2).

mouse [1] = test: Swimming test (Porsolt) in the mouse; format: in vivo
Protocol: Process: The procedure is similar to that described by Porsolt et al. (Arch. Int. Pharmacodyn. 229, p. 327–336 (1977).
Naïve (unconditioned) mice are subjected to forced swimming for 15 minutes in a glass cylinder containing 20 cm of water at a temperature of 25° C. The period of immobility from the third to the sixth minute (inclusive) and the time to reach total immobility from the sixth to the fifteenth minute were measured. Total immobility is defined as the latent time required in order for the animal to remain immobile for at least 30 seconds. The compounds were administered orally 60 minutes before the test.

NMDA receptor [2] = target: T1, NMDA receptor; test: Binding of [3H]MK-801 to rat cortical synaptosomial membranes; conditions: H3-MK-801, 45 min at 23° C., read-out: IC50, concentration displacing 50% of the ligand (MK-801) from the receptor
T1 construct: IC50, concentration displacing 50% of the ligand (MK-801) from the receptor; other: rat cortical membranes, H3-MK-801

NMDA receptor [3] = test: Release of [3H]noradrenalin stimulated by NMDA in rat hippocampus slices; format: cell-based; conditions: aCSF lacking Mg2+, 100 μM NMDA, read-out: IC50 for antagonizing the effect of 100 μM NMDA on [3H]noradrenalin release
Protocol: The preparation of the slices is analogous to that described previously. The slices were perfused in the presence of [^3H] noradrenalin with an aCSF lacking in Mg^2+ ions. After perfusion for 45 minutes to equilibrate the system, 7 fractions of 5 minutes each were collected. The test compounds were added to the perfusion liquid 10 minutes before starting the collection of the fractions, while 100 μM NMDA was added only to fraction 4, from the fifteenth minute after the start of collection.
At the end of the experiment, the radioactivity present was counted as described previously. For each sample, the percentage ratio between the fractional release in fraction 4 in the presence of NMDA and the fractional release in the first collected fraction was determined. The activity of the test drugs was expressed as a mean percentage value of the number of experiments performed relative to the percentage increase in the release of [^3H] noradrenalin into the NMDA-stimulated control chambers in the absence of antagonists.

rat striatum slices [4] = test: Basal release of [3H]acetylcholine from rat striatum slices in perfusion; format: cell-based; conditions: inactive = at the concentration in parentheses
Protocol: as §1, §2, §3, §4

[5] = test system: rat parieto-occipital cortex slices; test: Release of [3H]D-aspartate evoked by 30 mM KCl under hypoglycaemic conditions in rat parieto-occipital slices; format: cell-based; conditions: read-out: IC50 for antagonizing the hypoglycaemia-induced increase in the release of [3H]D-aspartate
Protocol: This in vitro experimental model was designed to mimic a condition of […] and is a modification of the model reported by Zablocka B. and Domanska-Janik K., [NeuroReport 6, 85–88 (1994)].
Rat parieto-occipital cortex is removed and sectioned into 400 μm coronal slices. The cortical slices are incubated at 37° C. for 30 minutes with [^3H]D-aspartate and then, after washing for 45 minutes, stimulated for 5 minutes with a hypertonic potassium solution (30 mM). Once the basal conditions have been restored, the slices are perfused with a glucose-free medium for 20 minutes. The test compounds are at this point added to a standard medium containing glucose and perfused until the end of the experiment. 10 minutes from the end of the hypoglycaemic period, a further hypertonic potassium stimulation depolarizes the neuronal membrane, causing an approximately 75% increase in the release of [^3H]D-aspartate evoked under control conditions.

rat striatum slices [6] = test: Basal release of [3H]dopamine from rat striatum slices in perfusion; format: cell-based; conditions: inactive = at the concentration in parentheses
Protocol: as §1, §2, §3, §4

mouse [7] = test: "Tail pinching" test in the mouse; format: in vivo; conditions: for Immobility time: 5 minutes; for % effect vs control: immobility time; for ED50: oral, calculated ED50, read-out: ED50 (reduction of immobility time)
Protocol: Process: The procedure is similar to that described by Steru et al. [Psychopharmacol. 85, p. 367-(1985)]. The animals are suspended by the tail 75 cm above the bench surface. The duration of immobility is measured over a period of 5 minutes: the animals are considered as being immobile only when they hang passively and completely motionless. The compounds were administered orally 30 minutes before the test.

NO-synthetase (NOS) = NO-synthetase (NOS) (Oryctolagus cuniculus, UniProt G1SGE1); test: Inhibition of NO (nitrite) formation in rabbit articular chondrocytes stimulated with IL-1β; format: cell-based; conditions: for IC50: nitrite formation, IL-1β 1 ng/ml, 48 hours, 95% confidence limits in parentheses, read-out: Rabbit articular chondrocytes % inhibition (IC50 × 10^−6M)
Protocol: a) The inhibitory activity on the formation of NO, measured as NO2^− (nitrite), was studied in vitro on culture media of rabbit articular chondrocytes stimulated with the cytokine IL-1β (1 ng/ml) for 48 hours. For the preparation of the chondrocytes, the method described by Berenbaum et al. […] The cells were maintained under these conditions to the point of confluency (about 15 days), the medium being changed every 3 days. […] The stimulation lasted for 48 hours at 37° C. (incubation under air-7% CO2). Next, an assay of the nitrites was performed on the cell supernatant according to the method described by Green et al. [Anal. Biochem. 126, 131–138 (1982)].

[8] = 0.1 mg/kg orally 60 minutes before the test
[9] = 1 mg/kg orally 60 minutes before the test
[10] = 10 mg/kg orally 60 minutes before the test
[11] = 1 mg/kg orally 30 minutes before the test
[12] = 10 mg/kg orally 30 minutes before the test
[13] = 3 mg/kg orally 60 minutes before the test
[14] = 30 mg/kg orally 60 minutes before the test

Chain of NO-synthetase (NOS) (G1SGE1 entry or part of it): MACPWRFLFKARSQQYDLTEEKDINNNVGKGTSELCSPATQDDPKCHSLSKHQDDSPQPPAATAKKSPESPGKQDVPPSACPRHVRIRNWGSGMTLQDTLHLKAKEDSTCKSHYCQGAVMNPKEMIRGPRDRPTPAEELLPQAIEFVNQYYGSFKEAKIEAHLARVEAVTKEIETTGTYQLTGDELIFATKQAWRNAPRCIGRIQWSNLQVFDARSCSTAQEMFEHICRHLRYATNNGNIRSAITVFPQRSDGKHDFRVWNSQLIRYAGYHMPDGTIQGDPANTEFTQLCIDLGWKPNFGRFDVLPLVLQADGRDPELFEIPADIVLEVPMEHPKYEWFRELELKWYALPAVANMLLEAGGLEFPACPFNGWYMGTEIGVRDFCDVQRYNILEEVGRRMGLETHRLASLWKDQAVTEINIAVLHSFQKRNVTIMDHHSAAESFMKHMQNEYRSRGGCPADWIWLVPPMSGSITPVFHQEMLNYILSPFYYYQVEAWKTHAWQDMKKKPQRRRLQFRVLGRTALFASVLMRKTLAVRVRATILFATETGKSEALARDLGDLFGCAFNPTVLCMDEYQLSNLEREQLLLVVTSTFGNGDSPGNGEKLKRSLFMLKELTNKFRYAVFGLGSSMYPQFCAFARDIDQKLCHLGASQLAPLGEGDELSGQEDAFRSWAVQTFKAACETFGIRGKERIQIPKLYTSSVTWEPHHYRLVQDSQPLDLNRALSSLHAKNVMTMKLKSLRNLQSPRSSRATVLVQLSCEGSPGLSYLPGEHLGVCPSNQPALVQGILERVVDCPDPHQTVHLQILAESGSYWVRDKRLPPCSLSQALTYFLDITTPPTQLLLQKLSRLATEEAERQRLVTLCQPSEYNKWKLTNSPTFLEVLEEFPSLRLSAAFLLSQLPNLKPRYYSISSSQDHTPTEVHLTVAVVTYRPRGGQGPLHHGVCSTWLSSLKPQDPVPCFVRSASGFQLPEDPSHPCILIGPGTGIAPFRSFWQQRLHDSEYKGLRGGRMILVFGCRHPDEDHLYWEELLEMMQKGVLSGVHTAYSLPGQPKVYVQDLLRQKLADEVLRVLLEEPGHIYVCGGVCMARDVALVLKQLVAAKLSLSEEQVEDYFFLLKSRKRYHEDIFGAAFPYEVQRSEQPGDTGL

CC12CC3CC(C)(C1)CC(CCNC(=N)N)(C3)C2 [Compound 4, N-[2-(3,5-dimethyl-1-adamantyl)ethyl]guanidine]
Basal release of [3H]NE on hippocampus slices: concentration increasing basal release by 100% (rat hippocampus slices): 15 µM | Immobility in sec. (3–6 mins) (mouse [1]; [8]): 39.3* sec. | Latent time vs immobility in sec. (6–15 mins) (mouse [1]; [8]): 353.3 s | Immobility in sec. (3–6 mins) (mouse [1]; [9]): 39.8* sec. | Latent time vs immobility in sec. (6–15 mins) (mouse [1]; [9]): 450.8* sec. | Immobility in sec. (3–6 mins) (mouse [1]; [10]): 42.4* sec. | Latent time vs immobility in sec. (6–15 mins) (mouse [1]; [10]): 495.8* sec. | IC50 (NMDA receptor [2]): ~40 µM | IC50 (NMDA receptor [3]): 0.5 µM | Basal release of [3H]Ach on striatum slices: concentration increasing basal release by 100% (rat striatum slices [4]): 20 µM | IC50 [5]: 0.8 µM | Basal release of [3H]DA on striatum slices: concentration increasing basal release by 100% (rat striatum slices [6]): 8 µM

N=C(NCCC12CC3CC(CC(C3)C1)C2)N[N+](=O)[O-] [Compound 5]
melting point: 260 °C

CC(=N)NCCC12CC3CC(CC(C3)C1)C2 (as salt: HCl) [Compound 1]
melting point: 243 °C

CC12CC3CC(C)(C1)CC(CCNC(=N)C1CC1)(C3)C2 [Compound 7]
melting point: 96 °C

CC(=N)NCCC12CC3CC(C)(CC(C)(C3)C1)C2 [Compound 2, N-[2-(3,5-dimethyl-1-adamantyl)ethyl]-acetamidine]
Basal release of [3H]NE on hippocampus slices: concentration increasing basal release by 100% (rat hippocampus slices): 6 µM | IC50 (NMDA receptor [2]): ~40 µM | IC50 (NMDA receptor [3]): 0.8 µM | Basal release of [3H]Ach on striatum slices: concentration increasing basal release by 100% (rat striatum slices [4]): inactive | IC50 [5]: 2.5 µM | Immobility time (mouse [7]; 0.3 mg/kg orally 30 minutes before the test): 56.6 s | % effect vs control (mouse [7]; 0.3 mg/kg orally): 25.7% | Immobility time (mouse [7]; [11]): 48.0 s | % effect vs control (mouse [7]; 1 mg/kg orally): 37.0% | Immobility time (mouse [7]; 3 mg/kg orally 30 minutes before the test): 42.6 s | % effect vs control (mouse [7]; 3 mg/kg orally): 44.1% | Immobility time (mouse [7]; [12]): 35.1 s | % effect vs control (mouse [7]; 10 mg/kg orally): 53.9% | ED50 (mouse [7]): 6 mg/kg | Basal release of [3H]DA on striatum slices: concentration increasing basal release by 100% (rat striatum slices [6]): 2 µM

COC(=O)[C@@H](N)CCCNC(=N)N[N+](=O)[O-] [L-NAME]
IC50 (NO-synthetase (NOS)): 340 µM

N=C(N)NCCC12CC3CC(CC(C3)C1)C2 (as salt: HCl) [Compound 3]
melting point: 246 °C

CN(C)CCC=C1c2ccccc2CCc2ccccc21 [Amitryptiline, reference compound]
Immobility in sec. (3–6 mins) (mouse [1]; [13]): 54.9 s | Latent time vs immobility in sec. (6–15 mins) (mouse [1]; [13]): 477.5 s | Immobility in sec. (3–6 mins) (mouse [1]; [10]): 56.0 s | Latent time vs immobility in sec. (6–15 mins) (mouse [1]; [10]): 461.0 s | Immobility in sec. (3–6 mins) (mouse [1]; [14]): 42.0 s | Latent time vs immobility in sec. (6–15 mins) (mouse [1]; [14]): 607.8** sec.

CC12CC3CC(C)(C1)CC(N)(C3)C2 [Memantine, reference compound]
Inhibition of the production of nitrite (NO-synthetase (NOS); up to the maximum concentration tested (3×10^−4M)): entirely inactive | Basal release of [3H]NE on hippocampus slices: concentration increasing basal release by 100% (rat hippocampus slices): 130 µM | IC50 (NMDA receptor [2]): 80 µM | IC50 (NMDA receptor [3]): 1.6 µM | Basal release of [3H]Ach on striatum slices: concentration increasing basal release by 100% (rat striatum slices [4]): inactive (100 μM) | IC50 [5]: 7.5 µM | Immobility time (mouse [7]; 0.1 mg/kg orally 30 minutes before the test): 49.9 s | % effect vs control (mouse [7]; 0.1 mg/kg orally): 36.8% | Immobility time (mouse [7]; [11]): 48.9 s | % effect vs control (mouse [7]; 1 mg/kg orally): 38.0% | Immobility time (mouse [7]; [12]): 40.1 s | % effect vs control (mouse [7]; 10 mg/kg orally): 49.2% | ED50 (mouse [7]): 24.9 mg/kg | Basal release of [3H]DA on striatum slices: concentration increasing basal release by 100% (rat striatum slices [6]): inactive (30 μM)

CC12CC3CC(C)(C1)CC(CCNC(=N)N[N+](=O)[O-])(C3)C2 [Compound 6, N-[2-(3,5-dimethyl-1-adamantyl)ethyl]-nitroguanidine]
IC50 (NO-synthetase (NOS)): 80.4 µM
